{"source": "paper PMC11682371", "about": "(Scientific Reports, 2024)", "target": "T1, recombinant human MAO-B (Homo sapiens, UniProt P27338)", "T1 sequence (P27338 1-520)": "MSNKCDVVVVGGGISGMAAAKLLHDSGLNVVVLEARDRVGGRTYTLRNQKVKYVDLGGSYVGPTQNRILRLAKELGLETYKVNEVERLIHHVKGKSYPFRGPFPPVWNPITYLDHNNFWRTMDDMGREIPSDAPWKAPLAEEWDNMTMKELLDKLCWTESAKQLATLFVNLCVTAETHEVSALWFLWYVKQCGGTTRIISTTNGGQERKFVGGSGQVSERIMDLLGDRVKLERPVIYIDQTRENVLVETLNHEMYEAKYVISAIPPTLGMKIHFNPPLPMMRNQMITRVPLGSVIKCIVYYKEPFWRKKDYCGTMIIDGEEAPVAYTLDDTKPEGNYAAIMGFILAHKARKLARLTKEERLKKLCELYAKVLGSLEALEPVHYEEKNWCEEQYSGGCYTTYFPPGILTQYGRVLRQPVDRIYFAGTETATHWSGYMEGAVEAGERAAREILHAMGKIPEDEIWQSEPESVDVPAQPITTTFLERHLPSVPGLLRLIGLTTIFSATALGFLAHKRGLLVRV", "test": "Reversibility of MAO-B inhibition by dialysis", "type": "biochemical", "conditions": "dialysis experiment"}
{"molecule": "C[C@H](NCc1ccc(OCc2cccc(F)c2)cc1)C(N)=O", "note": "[Safinamide]", "values": [{"measurement": "Reversibility of MAO-B inhibition", "value": "reversible"}]}
